According to US8703698B2, “Compositions and methods for treating atherosclerosis” (The University of Chicago, priority 2003, dated 2014):

T1: acyl CoA:cholesterol acyl transferase (Mus musculus, UniProt Q61263)
T1 construct: The relative activity of acyl CoA:cholesterol acyl transferase was determined in cholesterol-laden cells; host or cells: J774 mouse macrophages, cholesterol-loaded
T1 sequence (Q61263 1-540): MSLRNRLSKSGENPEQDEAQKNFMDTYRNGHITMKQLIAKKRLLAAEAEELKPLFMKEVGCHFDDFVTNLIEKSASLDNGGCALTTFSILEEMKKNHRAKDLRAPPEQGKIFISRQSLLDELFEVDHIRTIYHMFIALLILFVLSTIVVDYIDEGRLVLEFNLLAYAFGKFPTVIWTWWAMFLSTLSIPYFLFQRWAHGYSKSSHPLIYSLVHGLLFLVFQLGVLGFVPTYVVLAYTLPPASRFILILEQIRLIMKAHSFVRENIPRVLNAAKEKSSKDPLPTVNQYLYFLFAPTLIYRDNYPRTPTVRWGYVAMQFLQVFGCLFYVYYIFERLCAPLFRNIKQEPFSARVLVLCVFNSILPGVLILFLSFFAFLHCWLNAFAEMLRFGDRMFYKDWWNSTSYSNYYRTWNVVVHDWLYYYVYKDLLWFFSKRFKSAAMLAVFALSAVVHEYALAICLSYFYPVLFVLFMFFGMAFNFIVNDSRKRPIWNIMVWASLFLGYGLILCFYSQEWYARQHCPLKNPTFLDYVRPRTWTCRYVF


Experiments:
[1] = system: [3H]-cholesterol-loaded J774 macrophages; test: In vivo cholesterol efflux to plasma in mice injected with [3H]-cholesterol-loaded J774 macrophages; details: for 3H-cholesterol export into the plasma, dose response (FIGS. 17 and 18): liposome formulated, intravenous, 2, 4, 8, 16 or 32 μg/100 μl per mouse, 6 to 48 hours; for radiolabeled cholesterol exported in the plasma (FIG. 15): non-liposome formulated, in 100 μl PBS, intravenous, 15 μg/mouse peptide or 75 μg/mouse full length protein
Procedure: In these experiments, in vivo cholesterol export was determined in mice injected with J774 macrophages cholesterol-loaded with RBC membranes and [^3H]-cholesterol. Two hundred thousand macrophages in 100:1 PBS were injected into each mouse through the tail vein. At various time points thereafter, approximately 25:1 of blood were collected from the tail vein of each animal into heparinized capillary tubes. The tubes were then centrifuged for 5 minutes in an Adams Autocrit Centrifuge to separate red blood cells from plasma. Cholesterol efflux was determined by measuring the appearance of [^3H]-cholesterol in plasma by scintillation spectrometry. To study whether export of cholesterol from J774 cells to plasma was influenced by non-liposome formulated D-27mer peptide (SEQ ID NO:10), 24 hours after injection of cholesterol-loaded J774 macrophages into mice, the same animals received, by intravenous injection, 30 μg, 60 μg, 150 μg, 225 μg, 300 μg or 600 μg of D-27mer. All these amounts of D-peptides were dissolved in 100:l of phosphate buffered saline and injected through the tail vein of each animal.
Additional in vivo studies have also been conducted wherein mice were first injected intravenously with [^3H]cholesterol-laden macrophages and then injected 24 hours later with liposomes containing 0.5 μM of synthetic peptides corresponding to amino acid residues 1-20, 21-50, 51-80 or 74-103 of murine SAA2.1. Results from this study are depicted in FIG. 1. At time points indicated in the graph of FIG. 1, approximately 25 μl of blood were collected from the tail vein of each animal. The blood samples were centrifuged to separate the red blood cells from the plasma and the [^3H]-cholesterol in plasma was determined by scintillation counting. Results are mean±SEM of four determinations.
To determine cholesterol export in vivo, J774 macrophages were cholesterol-loaded with red blood cell membranes and [^3H]-cholesterol as described above. Cells were washed four times with PBS/BSA and then detached from the culture dishes. Five million cells in 200 μl DMEM were injected into control mice or inflamed mice through the tail vein. At various time points, approximately 25 μl of blood were collected from the tail vein of each animal into heparinized capillary tubes and then centrifuged for 5 minutes in an Adams Autocrit Centrifuge to separate red blood cells from plasma. Cholesterol efflux was determined by measuring the appearance of [^3H]-cholesterol in plasma by scintillation spectrometry.
J774 cells cultured in 6-well plates were enriched with cholesterol by incubating with red blood cell (RBC) membrane fragments (175:g as cholesterol) that had been previously labeled with 0.5:Ci/ml [^3H]-cholesterol at 37° C. for 24 hours in 0.2% bovine serum albumin (BSA). After loading with the labelled RBC membrane for 6 hours, cells were then washed with phosphate-buffered saline/BSA (PBS/BSA) three times followed by an 18 hour equilibration period during which monolayers were exposed to DMEM/BSA. To determine cholesterol export in vivo, J774 macrophages were cholesterol-loaded with RBC membranes and [^3H]-cholesterol as described previously above. Cells were washed four times with PBS/BSA and then detached from the culture dishes. Two hundred thousand cells in 100:l PBS were injected into mice through the tail vein. At various time points thereafter, approximately 25:l of blood were collected from the tail vein of each animal into heparinized capillary tubes. These tubes were then centrifuged for 5 minutes in an Adams Autocrit Centrifuge to separate red blood cells from plasma. Cholesterol efflux was determined by measuring the appearance of [^3H]-cholesterol in plasma by scintillation spectrometry. […]

[2] = system: THP-1 cells; test: Cholesterol efflux from cholesterol-laden human THP-1 cells; type: cell-based; details: for 3H-cholesterol exported into the media after 24 hours (FIG. 19): peptide/lipid mixture by microfluidizer, human THP-1 cells
[3] = system: J774 macrophages; test: [3H]cholesterol efflux from cholesterol-loaded J774 macrophages in tissue culture; type: cell-based, mouse; details: for 3H-cholesterol exported into the media after 24 hours (FIG. 19): peptide/lipid mixture by microfluidizer
[4] = system: NR8383 cells; test: Cholesterol export from rat NR8383 macrophages; type: cell-based; details: peptide/lipid mixture by microfluidizer
Procedure: In these experiments, mouse J774 cells, human THP-1 cells and rat NR8383 cells were loaded with red blood cell membranes containing ^3H-cholesterol in accordance with procedures outlined in Example 4. The peptides were prepared as lipid mixtures using a microfluidizer procedure. Briefly, 3 mg of the 20-mer synthetic peptide (SEQ ID NO:30) or the 19-mer synthetic peptide (SEQ ID NO:12) was mixed with 5 ml cyclohexane and sonicated (output power of 14 watts) for 20-seconds followed by a 10-second interval. Separately, 2-oleyl-1-palmitoyl-sn-glycero-3-phosphocholine (Sigma-Aldrich P3017; 67.8 mg) and cholesterol (9.66 mg) were dissolved in 2 ml of chloroform, vortexed and transferred to a 500 ml round bottom flask. The two mixtures (i.e. cyclohexane/peptide and phosphatidylcholine/cholesterol solutions) were then combined. The combined solution was dried using nitrogen gas while swirling the flask, resulting in a thin layer of lipid at the bottom half of the flask. In order to ensure that the thin layer of lipid residue was completely dry, nitrogen gas was streamed over the lipid layer for an additional 10 minutes. […] Efficacy of the peptides was determined as the amount ^3H-cholesterol exported into the media after 24 hours. […]

[5] = biological target: macrophage acyl CoA:cholesterol acyl transferase (murine)
[6] = biological target: macrophage cholesterol ester hydrolase (murine)
[7] = system: hepatic, macrophage, and pancreatic cholesterol esterase; details: Lindhorst 1997; Ely 2001; Tam 2002; cited from earlier work
[8] = biological target: T1, acyl CoA:cholesterol acyl transferase; details: intact murine macrophages and post-nuclear homogenates; Ely et al. 2001; cited from earlier work

Molecule	3H-cholesterol export into the plasma, dose response (FIGS. 17 and 18) [1]	radiolabeled cholesterol exported in the plasma (FIG. 15) [1]	3H-cholesterol exported into the media after 24 hours (FIG. 19) [2]	3H-cholesterol exported into the media after 24 hours (FIG. 19) ([3]; mouse J774 cells)	3H-cholesterol exported into the media after 24 hours (FIG. 19) [4]	other results
ADQAANEWGRSGKDPNHFR [SEQ ID NO:12, consensus 19-mer, residues 78-96 of human SAA1.1]	increased efficacy as the dose increased	no effect on cholesterol efflux	equally effective in inducing cholesterol export	equally effective in inducing cholesterol export	equally effective in inducing cholesterol export	cholesterol efflux, time course at various concentrations (FIG. 6) ([2]; liposomal formulations, 0.05 to 5.0 μM): continued to increase over a time period from 0 to 24 hours; cholesterol export enhancing activity, time course (FIG. 9) ([3]; liposomal formulations, mouse J774 cells): greatest cholesterol export enhancing activity; increase of cholesterol efflux with dose compared to mouse peptide SEQ ID NO:4 (FIGS. 5A and 5B) ([3]; liposomes, 0.05 to 5.0 μM, macrophages): at least as effective if not more effective
RSFFSFLGEAFDGARDMWRA [SEQ ID NO:30, 20-mer, residues 1-20 of human SAA1.1 or SAA2.1]	increased efficacy as the dose increased	no effect on cholesterol efflux	equally effective in inducing cholesterol export	equally effective in inducing cholesterol export	equally effective in inducing cholesterol export	
GFFSFVHEAFQGAGDMWRAY [synthetic peptide corresponding to amino acid residues 1-20 of murine SAA2.1]						acyl CoA:cholesterol acyl transferase activity (incorporation of [14C]oleate into cholesteryl ester), cholesterol-laden murine cells, liposomes with 0.5 µM peptide, 6 hour incubation (fold decrease) [5]: 2
DTIADQEANRHGRSGKDPNYYRPPGLPDKY [synthetic peptide corresponding to amino acid residues 74-103 of murine SAA2.1]						rate of hydrolysis of [14C]-labeled cholesteryl oleate in J774 cells, re-esterification blocked with Sandoz 58-035 (fold increase) [6]: 3
KEANWKNSDKYFHARGNYDAAQRGPGGVWAAEKISDGREAFQEFFGRGHEDTIADQEAN RHGRSGKDPNYYRPPGLPDKY (protein, 80-mer cyanogen bromide fragment of murine SAA2.1, residues 24-103) KEANWKNSDKYFHARGNYDAAQRGPGGVWAAEKISDGREAFQEFFGRGHEDTIADQEANRHGRSGKDPNYYRPPGLPDKY						cholesterol esterase activities in vitro [7]: effect was shown to reside; macrophage ACAT activity [8]: no inhibitory effect on ACAT activity
